We go through four molecules from patent publication US20230119360A1, “PHARMACEUTICAL COMBINATION OF A THERAPEUTIC OLIGONUCLEOTIDE TARGETING HBV AND A TLR7 AGONIST FOR TREATMENT OF HBV” (priority 2019, published 2023).

The test system of series [1] is HBV. The series can be described thus: AAV/HBV mouse model: HBsAg levels in serum (CLIA). The class given is in vivo, C57BL/6 mice. Also on record: HBsAg levels in serum, Average ± SD: unit not given here. Conditions: for HBsAg levels in serum, Average ± SD: AAV/HBV mice, anti-HBV ASO 7.5 mg/kg weekly, TLR7 100 mg/kg weekly (QW). An excerpt:
(§1) The AAV-HBV mouse model is generated by injecting C57BL/6 mice with recombinant adeno-associated virus harboring a replicable HBV genome (AAV-HBV). The rAAV8-1.3 HBV ayw virus stock was purchased from Beijing FivePlus Molecular Medicine Institute (Beijing, China).
The animals (male, aged 4-5 weeks upon arrival) were purchased from SLAC Laboratory Animal Co. Ltd (Shanghai, China), acclimatized in the animal facility for 5-7 days, and then injected with 1×10^11 vector genome of AAV-HBV (diluted in 200 μL of PBS) through the tail vein. Persistence expression of HBV genome can be established after three weeks, with high levels of HBV viral markers including HBV DNA, HBsAg, and HBeAg in mouse serum. With stable HBV viremia and competent immune system of the C57BL/6 mice, the AAV-HBV mouse model was used to evaluate the in vivo anti-HBV efficacy of the compounds. The in-life part of the AAV-HBV study was conducted through contracted service at Covance Pharmaceutical Research and Development (Shanghai) Co. Ltd. (Covance Shanghai) and the post-life analysis using the serum was performed internally at Roche Innovation Center Shanghai (RICS).
Seven days before compound treatment, blood samples were collected for serum preparation (˜15 μL), and based on HBV DNA, HBsAg levels in serum and body weight, the AAV-HBV infected animals were stratified into the different treatment groups.
Saline (Group 01) and anti-HBV ASO of CMP ID NO: 15_1 at 1.5 or 7.5 mg/kg were dosed sub subcutaneously once a week during Day 0-49 on Days 0, 7, 14, 21, 28, 35, 42 and 49. TLR7 agonist of CMP ID NO: VI 100 mg/kg was administered by oral gavage once every other day during Day 0-55 (QOD) or once weekly during Day 0-49 on Days 0, 7, 14, 21, 28, 35, 42 and 49 (QW). The animals were weekly bled via retro-orbital sinus for sample collection throughout the study. • Oligonucleotide Synthesis
Serum HBsAg levels were determined in the serum of infected AAV-HBV mouse using the HBsAg chemoluminescence immunoassay (CLIA) (Autobio diagnostics Co. Ltd., Zhengzhou, China, Cat. no.CL0310-2), according to the manufacturer's protocol. Briefly, 50μl of serum was transferred to the antibody coated microtiter plate and 50 μl of enzyme conjugate reagent was added. The plate was incubated for 60 min on a shaker at room temperature before all wells were washed six times with washing buffer using an automatic washer. 25 μl of substrate A and then 25 μl of substrate B was added to each well. The plate was incubated for 10 min at RT before luminescence was measured using an Envision luminescence reader (Perkin Elmer). HBsAg is given in the unit IU/ml; where 1 ng HBsAg=1.14 IU.
To evaluate the combination of the anti-HBV ASO and the TLR7 agonist in an in vivo system, a mouse model of chronic HBV infection was used. In the AAV/HBV mouse model described in the Materials and Method a persistent HBV infection is established resulting in expression of viral markers (HBsAg, HBeAg, HBV DNA) detectable in plasma. The effect on these viral markers upon treatment with the anti-HBV ASO of CMP ID NO: 15_1 (table 2, and FIG. 4) dosed at 1.5 mg/kg or 7.5 mg/kg and the TLR7 agonist of CMP ID NO: VI (table 3) dosed with […] every other day (QOD) or once weekly (QW) in monotherapy or in combination has been evaluated.

For series [2], the system named is HBV. Put plainly: AAV/HBV mouse model: HBV-DNA levels in serum (qPCR). It counts as in vivo, C57BL/6 mice.
Text: as §1
The animals (male, aged 4-5 weeks upon arrival) were purchased from SLAC Laboratory Animal Co. Ltd (Shanghai, China), acclimatized in the animal facility for 5-7 days, and then injected with 1×10^11 vector genome of AAV-HBV (diluted in 200 μL of PBS) through the tail vein. Persistence expression of HBV genome can be established after three weeks, with high levels of HBV viral markers including HBV DNA, HBsAg, and HBeAg in mouse serum. […]
Quantification of extracted HBV DNA was performed using a Taqman qPCR machine (ViiA7, life technologies). […] DNA copy numbers were calculated from Ct values based on a HBV plasmid DNA standard curve by the ViiA7 software.
To evaluate the combination of the anti-HBV ASO and the TLR7 agonist in an in vivo system, a mouse model of chronic HBV infection was used. […] The effect on these viral markers upon treatment with the anti-HBV ASO of CMP ID NO: 15_1 (table 2, and FIG. 4) dosed at 1.5 mg/kg or 7.5 mg/kg and the TLR7 agonist of CMP ID NO: VI (table 3) dosed with […] every other day (QOD) or once weekly (QW) in monotherapy or in combination has been evaluated.
A general note: In qPCR the cycle at which signal appears reflects the starting amount.

For series [3], the system named is HBV. The series can be described thus: AAV-HBV mouse model, single dose siRNA vs ASO: serum HBsAg. The class given is in vivo, C57BL/6 mice. Conditions: 6.6 mg/kg single subcutaneous injection Day 0. As to the method:
The purpose of this study was to evaluate the in vivo pharmacology and efficacy of certain compounds in AAV-HBV mouse model.
Recombinant adeno-associated virus (AAV) carrying the Hepatitis B Virus (HBV) genome rAAV8-1.3HBV ayw (Lot No: 2019032703) was purchased from Beijing FivePlus Molecular Medicine Institute, and stored at −70° C. before use.
One hundred and fifteen (115) male C57BL/6 mice were obtained. On Pre-dose Day 0, all the animals were subjected to injection through tail vein with 1×10^11 vector genome of AAV-HBV for model induction. Based on baseline serum viral markers and body weight on Pre-dose Day 24, 80 qualified HBV-infected mice were selected.
The 80 selected mice were randomized into 4 groups for compound treatment. Sterile water, DCR-AUD1, DCR-5219 (9 mg/kg), and CMP ID NO: 15_1 (6.6 mg/kg) were subcutaneously injected once at 5 mL/kg on Day 0. The dosing volume was […].
Whole blood was collected to prepare serum (15 μL per mouse) twice weekly during Day 0˜21. On Day 21, the mice were euthanized. […]
Baseline serum levels of HBsAg were determined by ARCHITECT i2000 (Abbott Laboratories, Lake Bluff, IL, USA) and supporting reagents. Baseline serum HBV DNA level was measured by using ABI7500 (Applied Biosystems, Foster City, Calif., USA) and detection kit (Sansure Biotech Inc., Changsha, Hunan, China).

Series [4] relates to HBV. Put plainly: Entecavir combination study in HBV-expressing mouse (HDI model). It counts as in vivo. The note with it: HDI mice; monotherapy. As to the method:
The RNAi oligonucleotides targeting the S antigen impact both the viral polymerase and HBsAg protein. In this study, the combinational effects of HBV(s)-219P2 as a monotherapy and combinational treatment with entecavir was explored in an HBV-expressing mouse (HDI model) for antiviral activity.
Mice were administered daily oral dosing of 500 ng/kg Entecavir (ETV) for 14 days. A single subcutaneous administration of HBV(s)-219P2 took place. Circulating viral load (HBV DNA) was measured by qPCR (FIG. 25A), plasma HBsAg level was measured by ELISA (FIG. 25B), and liver HBV mRNA and pgRNA levels were measured by qPCR.

For another series, the system named is HBsAg. On the procedure: Preclinical potency was further evaluated in mice following a QW×3 dosing regimen in which HBV-254 was subcutaneously administered at 3 mg/kg (FIG. 23). The administration points are indicated by arrows in the figure. HBsAg levels were monitored in both oligonucleotide treated and untreated control mice for a period spanning 147 days.
Each oligonucleotide, including HBV-254, was evaluated at three concentrations (1, 10, and 100 pM) in HeLa cells using the fluorescence-based reporter assay.

As to “5′-GN2-C6ocoaoGs^mCsGstsasasasgsasgsasGsG-3′ [CMP ID NO: 15_1]”, the “HBsAg levels in serum, Average ± SD” value is given as 4.30 ± 0.30 in the series with HBV [1] (D 0); 1.71 ± 0.24 in the series with HBV [1] (D 7); 1.83 ± 0.21 in the series with HBV [1] (D 14); 1.43 ± 0.17 in the series with HBV [1] (D 21); 1.30 ± 0.19 in the series on HBV [1] (D 28); 1.36 ± 0.26 in the series on HBV [1] (D 35). The “HBsAg levels in serum, Average ± SD” value with HBV [1] (D 42) is reported as 1.30 ± 0.16; with HBV [1] (D 49), 1.56 ± 0.16; in the series with HBV [1] (D 56), 1.32 ± 0.24; in the series on HBV [1] (D 63) it was 1.33 ± 0.47; with HBV [1] (D 70), 2.18 ± 0.91; with HBV [1] (D 77), 2.70 ± 0.85. The “HBsAg levels in serum, Average ± SD” value in the series with HBV [1] (D 84) turned out to be 3.17 ± 0.60; with HBV [1] (D 91), 3.82 ± 0.38; with HBV [1] (D 98) it was 3.64 ± 0.81; with HBV [1] (D 105), 3.61 ± 0.97; in the series on HBV [1] (D 111), 3.40 ± 1.49. Further, the “suppression of HBsAg below the detection limit” value with HBV [1] (anti-HBV ASO 1.5 mg/kg monotherapy) is reported as “not capable of suppressing HBsAg to a level below the detection limit”. Further, the “reduction in HBV-DNA” value in the series on HBV [2] (monotherapy at both 1.5 mg/kg and 7.5 mg/kg) was “rapid reduction in HBV-DNA to below the lower level of quantification”. The “time until which decrease in HBsAg was maintained before rebound” value in the series on HBV [3] is on record as “about 10 days”. In the series on HBV [3] (21 days), the “HBsAg level over time” value is “rapid decrease in HBsAg level”.

Regarding `CC[C@H](OC(C)=O)[C@@H]1C[C@@H](O)[C@H](n2c(=O)sc3cnc(N)nc32)O1` [CMP ID NO: VI, [(1S)-1-[(2S,4R,5R)-5-(5-amino-2-oxo-thiazolo[4,5-d]pyrimidin-3-yl)-4-hydroxy-tetrahydrofuran-2-yl]propyl] acetate], the “day of lowest HBsAg” value with HBV [1] (TLR7 agonist alone (FIG. 10A)) was 42 days. For the same molecule, the “HBV DNA rebound, distance from control group during follow-up” value in the series on HBV [2] (TLR7 agonist monotherapy, QOD or QW) is recorded as ≤ 1 log.

Consider `C=C1[C@H](CO)[C@@H](O)C[C@@H]1n1cnc2c(=O)[nH]c(N)nc21` [entecavir, Entecavir], for which, in the series on HBV [4], the “circulating HBsAg” value is reported as “No significant decrease” and the “hepatic viral RNAs” value was “No significant decrease”.

For “HBV-254: HBsAg-targeting duplex oligonucleotide, sense SEQ ID NO: 55, antisense SEQ ID NO: 56 (sense GUGGUGGACUUCUCUCAAUAGCAGCCGAAAGGCUGC; antisense UAUUGAGAGAAGUCCACCACGG; chemistry not given here)”, the HBsAg levels entry in the series with HBsAg (HDI-mice, single subcutaneous dose, increasing dosage) is listed as “systematically reduced HBsAg levels in mice with increasing dosage”. Also, the “HBsAg levels relative to control” value with HBsAg (mice, QW×3, 3 mg/kg subcutaneous, monitored 147 days) is reported as “Diminished HBsAg levels persisted in treated mice throughout the entirety of the study”.
